# Assay results: ChEMBL document CHEMBL1132621, “Synthesis, structure-activity relationships, and in vivo evaluations of substituted di-tert-butylphenols as a novel class of potent, selective, and orally active cyclooxygenase-2 inhibitors. 1. Thiazolone and oxazolone series” (J Med Chem, 1999); call rule not given here
# pIC50: −log10 of the molar value.
# Assays:
# [1] = target: T1, Prostaglandin G/H synthase 1 (Homo sapiens, UniProt P23219); assay: IC50 value was determined against Prostaglandin G/H synthase 1 of human platelet rich plasma; Not active
# [2] = target: T2, Prostaglandin G/H synthase 2 (Mus musculus, UniProt Q05769)
# T2 sequence (Q05769 whole entry): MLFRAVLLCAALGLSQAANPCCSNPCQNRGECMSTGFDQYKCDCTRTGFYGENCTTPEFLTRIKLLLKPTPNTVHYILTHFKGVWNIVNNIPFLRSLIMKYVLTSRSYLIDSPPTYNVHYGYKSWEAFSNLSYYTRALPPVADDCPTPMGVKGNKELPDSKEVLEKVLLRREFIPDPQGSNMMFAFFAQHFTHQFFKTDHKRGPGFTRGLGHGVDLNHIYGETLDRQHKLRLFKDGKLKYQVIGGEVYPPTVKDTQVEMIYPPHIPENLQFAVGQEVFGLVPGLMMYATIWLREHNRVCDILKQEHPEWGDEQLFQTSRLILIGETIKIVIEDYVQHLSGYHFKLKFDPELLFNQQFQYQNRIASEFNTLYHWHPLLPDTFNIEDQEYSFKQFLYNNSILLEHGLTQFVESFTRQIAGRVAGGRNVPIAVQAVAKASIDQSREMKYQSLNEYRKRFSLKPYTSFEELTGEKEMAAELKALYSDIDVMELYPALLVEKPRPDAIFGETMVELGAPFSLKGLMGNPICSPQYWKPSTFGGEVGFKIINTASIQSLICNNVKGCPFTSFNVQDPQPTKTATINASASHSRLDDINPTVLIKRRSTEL
# Description: IC50 value was determined against Prostaglandin G/H synthase 2 of J7744A.1 cell lines.
# [3] = target: T3, Prostaglandin G/H synthase 2 (Homo sapiens, UniProt P35354); assay: IC50 against recombinant human Prostaglandin G/H synthase 2
# T3 sequence (P35354 whole entry): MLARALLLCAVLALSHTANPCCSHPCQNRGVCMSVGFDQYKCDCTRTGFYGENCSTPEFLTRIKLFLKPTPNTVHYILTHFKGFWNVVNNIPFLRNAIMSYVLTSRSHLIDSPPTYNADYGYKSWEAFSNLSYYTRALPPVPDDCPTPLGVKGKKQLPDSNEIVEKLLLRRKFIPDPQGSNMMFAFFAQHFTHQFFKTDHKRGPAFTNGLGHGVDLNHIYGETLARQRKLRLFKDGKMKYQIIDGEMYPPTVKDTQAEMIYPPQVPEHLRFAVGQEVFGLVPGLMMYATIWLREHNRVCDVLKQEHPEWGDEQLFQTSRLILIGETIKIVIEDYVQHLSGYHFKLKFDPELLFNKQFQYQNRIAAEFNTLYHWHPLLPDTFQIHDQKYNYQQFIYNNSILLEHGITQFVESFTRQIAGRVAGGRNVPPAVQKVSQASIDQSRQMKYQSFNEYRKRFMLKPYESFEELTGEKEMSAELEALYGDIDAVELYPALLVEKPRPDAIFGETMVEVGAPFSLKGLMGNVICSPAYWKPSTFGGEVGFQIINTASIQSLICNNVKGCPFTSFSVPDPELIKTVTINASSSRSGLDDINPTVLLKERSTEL
# [4] = target: T4, Prostaglandin G/H synthase 1 (Ovis aries, UniProt P05979)
# T4 sequence (P05979 whole entry): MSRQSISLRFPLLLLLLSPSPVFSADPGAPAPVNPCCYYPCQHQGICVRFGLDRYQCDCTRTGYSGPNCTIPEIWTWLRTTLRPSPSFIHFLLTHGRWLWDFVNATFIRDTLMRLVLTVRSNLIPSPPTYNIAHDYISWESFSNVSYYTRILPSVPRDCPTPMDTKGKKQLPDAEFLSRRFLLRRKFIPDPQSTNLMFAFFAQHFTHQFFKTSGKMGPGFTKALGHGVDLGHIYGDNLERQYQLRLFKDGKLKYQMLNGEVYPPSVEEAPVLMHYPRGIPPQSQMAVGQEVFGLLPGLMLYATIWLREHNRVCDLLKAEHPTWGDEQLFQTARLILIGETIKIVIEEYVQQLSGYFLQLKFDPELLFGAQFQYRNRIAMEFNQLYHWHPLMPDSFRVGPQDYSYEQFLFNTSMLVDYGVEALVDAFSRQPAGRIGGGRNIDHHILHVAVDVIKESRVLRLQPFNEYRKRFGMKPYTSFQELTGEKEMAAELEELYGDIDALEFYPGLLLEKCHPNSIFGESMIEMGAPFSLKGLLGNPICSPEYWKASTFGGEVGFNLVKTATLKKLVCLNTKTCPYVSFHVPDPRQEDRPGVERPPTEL
# Description: IC50 against ovine Prostaglandin G/H synthase 1
# [5] = target: T1, Prostaglandin G/H synthase 1; assay: (§1) IC50 against Prostaglandin G/H synthase 1 from human platelet rich plasma
# [6] = target: T5, Prostaglandin G/H synthase 1 (Ovis aries) (UniProt P05979); assay: IC50 value against oCOX-1 at 10 uM
# T5 sequence (whole entry): T4 sequence (P05979 whole entry)
# [7] = target: T1, Prostaglandin G/H synthase 1; assay: as §1
# [8] = target: T5, Prostaglandin G/H synthase 1 (Ovis aries); assay: IC50 value against ovine Prostaglandin G/H synthase 1; Not active; settings: concentration not given here
# Mus musculus = organism: Mus musculus; assay: ED50 measured by hyperalgesia assay; assay type: functional
# Rattus norvegicus [9] = organism: Rattus norvegicus; assay: Percentage inhibition of the prostaglandin synthesis was measured in rats.; assay type: functional
# Rattus norvegicus [10] = organism: Rattus norvegicus; assay: Lesion frequency measured in rats; assay type: functional
# Rattus norvegicus [11] = organism: Rattus norvegicus; assay: Percentage of gastric damage was measured in rats.; assay type: functional, Stomach
# Rattus norvegicus [12] = organism: Rattus norvegicus; assay: ED50 measured by CFE assay; assay type: functional
# [13] = target: T5, Prostaglandin G/H synthase 1 (Ovis aries); assay: IC50 value against ovine Prostaglandin G/H synthase 1 at 10 uM
# [14] = target: T3, Prostaglandin G/H synthase 2; assay: IC50 value against recombinant human Prostaglandin G/H synthase 2; not active
# [15] = target: T5, Prostaglandin G/H synthase 1 (Ovis aries); assay: IC50 value against oCOX-1 at 10 uM; Not active
# [16] = target: T6, Prostaglandin G/H synthase 2 (Homo sapiens) (UniProt P35354); assay: IC50 value against recombinant human Prostaglandin G/H synthase 2 at 10 uM
# T6 sequence (whole entry): T3 sequence (P35354 whole entry)
# T1 sequence (P23219 whole entry): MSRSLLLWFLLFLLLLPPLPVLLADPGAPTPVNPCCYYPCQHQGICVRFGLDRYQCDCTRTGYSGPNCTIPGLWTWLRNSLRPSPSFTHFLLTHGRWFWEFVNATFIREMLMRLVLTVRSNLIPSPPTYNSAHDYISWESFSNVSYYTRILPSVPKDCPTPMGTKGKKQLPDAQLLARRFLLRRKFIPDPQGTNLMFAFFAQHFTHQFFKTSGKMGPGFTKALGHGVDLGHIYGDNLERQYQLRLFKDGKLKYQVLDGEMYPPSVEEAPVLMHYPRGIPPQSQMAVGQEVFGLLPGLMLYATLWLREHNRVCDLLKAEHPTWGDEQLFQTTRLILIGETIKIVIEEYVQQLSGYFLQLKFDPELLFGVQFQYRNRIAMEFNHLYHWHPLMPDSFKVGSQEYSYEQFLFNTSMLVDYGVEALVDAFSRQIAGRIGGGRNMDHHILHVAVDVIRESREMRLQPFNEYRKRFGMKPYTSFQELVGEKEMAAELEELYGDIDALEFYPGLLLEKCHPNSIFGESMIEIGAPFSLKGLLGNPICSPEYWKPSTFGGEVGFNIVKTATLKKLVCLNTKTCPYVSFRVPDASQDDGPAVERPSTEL
Structure (SMILES),pIC50 [2],pIC50 [3],pIC50 [4],pIC50 [5],pIC50 [7],other results
CONC1=NC(=O)/C(=C/c2cc(C(C)(C)C)c(O)c(C(C)(C)C)c2)S1 [listing 1 of 2 here],6.77,5.77,–,–,–,pIC50 [1]: < 4.70
CC(C)(C)c1cc(/C=C2\NC(=S)NC2=O)cc(C(C)(C)C)c1O,7.08,6.59,5.89,6.00,–,–
CC(C)(C)c1cc(/C=C2\SC(NC#N)=NC2=O)cc(C(C)(C)C)c1O,6.64,4.26,–,–,< 4.70,inhibition [6]: < 20%
CONC1=NC(=O)/C(=C/c2cc(C(C)(C)C)c(O)c(C(C)(C)C)c2)S1 [listing 2 of 2 here],–,–,–,–,–,inhibition [8]: < 20%
C/C(=C1/SC(N=C(N)N)=NC1=O)c1cc(C(C)(C)C)c(O)c(C(C)(C)C)c1,6.74,4.92,6.34,6.23,–,–
CONC1=NC(=O)/C(=C/c2cc(C(C)(C)C)c(O)c(C(C)(C)C)c2)S1.C[N+](C)(C)CC[O-],–,–,–,–,–,ED40 (Mus musculus): 0.1 mg/kg; Inhibition (Rattus norvegicus [9]): 32.8%; Lesion frequency (Rattus norvegicus [10]): 0%; Gastric damage (Rattus norvegicus [11]): 0%; ED40 (Rattus norvegicus [12]): 15.7 mg/kg
C=CCONC1=NC(=O)/C(=C/c2cc(C(C)(C)C)c(O)c(C(C)(C)C)c2)S1,5.80,5.57,–,–,–,inhibition [8]: < 20%; pIC50 [1]: < 4.70
CS(=O)(=O)Nc1ccc([N+](=O)[O-])cc1OC1CCCCC1 [NS-398],–,–,–,–,–,ED40 (Mus musculus): 7.4 mg/kg; Inhibition (Rattus norvegicus [9]): 30.7%; Lesion frequency (Rattus norvegicus [10]): 0%; Gastric damage (Rattus norvegicus [11]): 0%; ED40 (Rattus norvegicus [12]): 0.61 mg/kg
CC(C)(C)c1cc(/C=C2\SC(=O)NC2=O)cc(C(C)(C)C)c1O,7.22,5.33,4.38,5.03,–,–
CC(C)(C)c1cc(/C=C2\SC(NO)=NC2=O)cc(C(C)(C)C)c1O,6.77,5.82,4.28,–,5.04,–
CC(C)c1cc(/C=C2\SC(N=C(N)N)=NC2=O)cc(C(C)C)c1O,6.72,5.74,6.66,–,5.57,–
CCONC1=NC(=O)/C(=C/c2cc(C(C)(C)C)c(O)c(C(C)(C)C)c2)S1,6.57,5.49,–,–,–,inhibition [8]: < 20%; pIC50 [1]: < 4.70
CS(=O)(=O)c1ccc(-n2nc(C(F)(F)F)cc2-c2ccc(F)cc2)cc1 [SC-58125],–,–,–,–,–,ED40 (Mus musculus): 0.3 mg/kg; Inhibition (Rattus norvegicus [9]): -1.58%; Lesion frequency (Rattus norvegicus [10]): 0%; inhibition [13]: < 20%; Gastric damage (Rattus norvegicus [11]): 0%; ED40 (Rattus norvegicus [12]): > 30 mg/kg
CC(C)(C)c1cc(/C=C2\SC(=S)NC2=O)cc(C(C)(C)C)c1O,6.41,5.82,4.62,< 4.70,–,–
COc1ccc2c(c1)c(CC(=O)O)c(C)n2C(=O)c1ccc(Cl)cc1 [INDOMETHACIN],–,–,–,–,–,ED40 (Mus musculus): 0.6 mg/kg; Inhibition (Rattus norvegicus [9]): 96.5%; Lesion frequency (Rattus norvegicus [10]): 75%; Gastric damage (Rattus norvegicus [11]): 0.18%; ED40 (Rattus norvegicus [12]): 1.6 mg/kg
CC(C)(C)c1cc(/C=C2\OC(=O)NC2=O)cc(C(C)(C)C)c1O,7.15,4.47,7.02,5.92,–,–
CC(C)(C)c1cc(/C=C2\OC(N=C(N)N)=NC2=O)cc(C(C)(C)C)c1O,6.36,5.29,5.92,5.36,–,–
C=CCONC1=NC(=O)/C(=C/c2cc(C(C)(C)C)c(O)c(C(C)(C)C)c2)O1,5.72,4.59,5.40,< 4.70,–,–
CON(C)C1=NC(=O)/C(=C/c2cc(C(C)(C)C)c(O)c(C(C)(C)C)c2)S1,5.80,4.74,4.29,–,5.24,ED40 (Mus musculus): 0.06 mg/kg; Inhibition (Rattus norvegicus [9]): 52.2%; Lesion frequency (Rattus norvegicus [10]): 25%; Damaged area (Rattus norvegicus [11]): 0.04%; ED40 (Rattus norvegicus [12]): 8.1 mg/kg
CCONC1=NC(=O)/C(=C/c2cc(C(C)(C)C)c(O)c(C(C)(C)C)c2)O1,6.19,4.10,5.46,< 4.70,–,–
CC(C)(C)c1cc(/C=C2\SC(N=C(N)N)=NC2=O)cc(C(C)(C)C)c1O,6.37,4.68,8.21,–,6.60,–
CSC1=NC(=O)/C(=C/c2cc(C(C)(C)C)c(O)c(C(C)(C)C)c2)S1,5.80,5.74,4.20,–,4.84,–
CSC1=NC(=O)/C(=C/c2cc(C(C)(C)C)c(O)c(C(C)(C)C)c2)O1,6.27,–,5.80,–,5.19,IC50 [14]: Not Active
CC(C)(C)c1cc(C=C2SC(=N)NC2=O)cc(C(C)(C)C)c1O [DARBUFELONE],7.16,–,–,–,6.22,inhibition [15]: < 20%; inhibition [16]: 41%
CONC1=NC(=O)/C(=C/c2cc(C(C)(C)C)c(O)c(C(C)(C)C)c2)O1,6.10,–,5.14,< 4.70,–,–
CN1C(NC(=N)N)=NC(=O)/C1=C/c1cc(C(C)(C)C)c(O)c(C(C)(C)C)c1,6.12,4.09,7.57,5.82,–,–
CONC1=NC(=O)/C(=C/c2cc(C(C)C)c(O)c(C(C)C)c2)S1,< 4.70,6.24,< 4.70,–,< 4.70,–
